Laboratory results: publication PMC5056396, “Hexokinase I N-terminal based peptide prevents the VDAC1-SOD1 G93A interaction and re-establishes ALS cell viability” (Scientific Reports, 2016)

B1: HK1: recombinant human HK1 purchased by Sigma; in cells expressed from plasmid (protein)
chain: MIAAQLLAYYFTELKDDQVKKIDKYLYAMRLSDETLIDIMTRFRKEMKNGLSRDFNPTATVKMLPTFVRSIPDGSEKGDFIALDLGGSSFRILRVQVNHEKNQNVHMESEVYDTPENIVHGSGSQLFDHVAECLGDFMEKRKIKDKKLPVGFTFSFPCQQSKIDEAILITWTKRFKASGVEGADVVKLLNKAIKKRGDYDANIVAVVNDTVGTMMTCGYDDQHCEVGLIIGTGTNACYMEELRHIDLVEGDEGRMCINTEWGAFGDDGSLEDIRTEFDREIDRGSLNPGKQLFEKMVSGMYLGELVRLILVKMAKEGLLFEGRITPELLTRGKFNTSDVSAIEKNKEGLHNAKEILTRLGVEPSDDDCVSVQHVCTIVSFRSANLVAATLGAILNRLRDNKGTPRLRTTVGVDGSLYKTHPQYSRRFHKTLRRLVPDSDVRFLLSESGSGKGAAMVTAVAYRLAEQHRQIEETLAHFHLTKDMLLEVKKRMRAEMELGLRKQTHNNAVVKMLPSFVRRTPDGTENGDFLALDLGGTNFRVLLVKIRSGKKRTVEMHNKIYAIPIEIMQGTGEELFDHIVSCISDFLDYMGIKGPRMPLGFTFSFPCQQTSLDAGILITWTKGFKATDCVGHDVVTLLRDAIKRREEFDLDVVAVVNDTVGTMMTCAYEEPTCEVGLIVGTGSNACYMEEMKNVEMVEGDQGQMCINMEWGAFGDNGCLDDIRTHYDRLVDEYSLNAGKQRYEKMISGMYLGEIVRNILIDFTKKGFLFRGQISETLKTRGIFETKFLSQIESDRLALLQVRAILQQLGLNSTCDDSILVKTVCGVVSRRAAQLCGAGMAAVVDKIRENRGLDRLNVTVGVDGTLYKLHPHFSRIMHQTVKELSPKCNVSFLLSEDGSGKGAALITAVGVRLRTEASS

Assays:
recombinant human VDAC1 [1] = assay: In vitro binding assay of SOD1 proteins to VDAC1 immobilized on Ni-NTA magnetic beads (western blot); conditions: 6.25 μM SOD1, 1 h RT, n = 3
Procedure: (§1) Intact isolated mitochondria from the motor neuron-like NSC34 cells were incubated with SOD1 WT or G93A, and mitochondrial membranes were precipitated by centrifugation. […] The affinity of SOD1 proteins for VDAC1 was then studied by using an in vitro binding assay. Purified and refolded VDAC1 was immobilized on Ni-NTA magnetic beads and incubated with SOD1 proteins. Then, VDAC1-binding complexes were isolated by the application of a magnetic field. […] The VDAC1-SOD1 interaction was quantitatively assayed by Microscale Thermophoresis (MST) analysis. MST measures any variation in the thermal migration of a fluorescently labeled binding partner; changes of fluorescence in a heated spot of the protein solution is a function of increasing interacting protein concentration, and can be exploited to calculate the binding affinity coefficient (Kd). The fluorescent-labeled VDAC1 was incubated with increasing concentrations of SOD1 proteins and the changes in fluorescence monitored. […] Depletion curve was used to calculate the Kd, which was estimated 4,81 μM.
Recombinant VDAC1 was immobilized onto Ni-NTA Magnetic Agarose Beads (Qiagen) by exploiting its 6xHis-tag, according with manufacture’s protocol. […] Any protein in VDAC1-bound and -unbound fractions was evaluated by western blot. […]

[2] = tested on: intact mitochondria purified from NSC34 cells; assay: Mitochondrial binding assay of SOD1 proteins (western blot); design: species or system mouse; conditions: 2 μg SOD1, 1 h RT, n = 3
Procedure: Intact isolated mitochondria from the motor neuron-like NSC34 cells were incubated with SOD1 WT or G93A, and mitochondrial membranes were precipitated by centrifugation. […] The affinity of SOD1 proteins for VDAC1 was then studied by using an in vitro binding assay. Purified and refolded VDAC1 was immobilized on Ni-NTA magnetic beads and incubated with SOD1 proteins. Then, VDAC1-binding complexes were isolated by the application of a magnetic field. […] The VDAC1-SOD1 interaction was quantitatively assayed by Microscale Thermophoresis (MST) analysis. MST measures any variation in the thermal migration of a fluorescently labeled binding partner; changes of fluorescence in a heated spot of the protein solution is a function of increasing interacting protein concentration, and can be exploited to calculate the binding affinity coefficient (Kd). The fluorescent-labeled VDAC1 was incubated with increasing concentrations of SOD1 proteins and the changes in fluorescence monitored. […]
Intact mitochondria were purified from NSC34 cells by Mitochondrial isolation kit (Miltenyi Biotech), according with manufacturer’s instructions. Isolated, intact mitochondria, in the storage buffer provided, were quantified by Lowry method. […] Proteins in mitochondrial or supernatant fraction were detected by western blot and quantified as explained in Supplementary Information. […]

[3] = tested on: human VDAC1 reconstituted into PLB; assay: VDAC1 channel conductance in planar lipid bilayer (PLB); assay type: biochemical; conditions: for effect on single channel VDAC1 conductance: 1 M KCl, +25 mV, 0.2 μM SOD1 proteins or 15 μM peptide; for effect on voltage-dependence of VDAC1, triangular voltage ramps: symmetric 1 M KCl, ramps 0 to ±50 mV
Source text: Purified VDAC1 was reconstituted into a planar phospholipid bilayer (PLB) and its channel conductance was monitored before and after addition of SOD1 proteins, on cis or trans side of the membrane. […] Moreover, the effect of SOD1 proteins on the voltage-dependence of VDAC1 was monitored by triangular voltage ramps from 0 to ±50 mV. […] The current linearly follows the voltage applied up to about ±25 mV, where VDAC1 decreases its channel conductance through step-like transitions, remaining in low-conducting states.
Under standard experimental condition (1 M KCl and an applied potential of +25 mV) the VDAC1 channel was mainly in low-conducting closed states. […] The effect of NHK1 on the channel conductance is even more evident by plotting the amplitude values obtained in the current traces as a function of the number of events. While for VDAC1 alone the amplitude values appear as a main peak corresponding to the closed states (Fig. 4B), the presence of NHK1 caused a different distribution of events: an additional, different peak corresponding to the open state was visible, together with the closed states peak (Fig. 4C). […] The effect of NHK1 on the voltage-dependence of VDAC1 was monitored by triangular voltage ramps. […] In this experiment, indeed, VDAC1 completely loose, very precociously (already at ±15 mV applied), its ability to linearly respond to the applied voltage: a continuous switch from open to closed states was observed, especially at positive potentials. […] Upon NHK1 incubation, VDAC1 current transitions at positive voltages are very noisy and pass through different sub-conductance states (Fig. 4F).
Purified VDAC1 was reconstituted into a Planar Lipid Bilayer (PLB) apparatus (Warner Instruments, Hamden, CT, USA), previously described. Bilayers were prepared using asolectin (Sigma) dissolved in decane (Sigma) containing 1% chloroform (Sigma) across a 200 μm hole in a derlin cuvette (Warner Instruments). Experiments were performed in 1 M KCl, 10 mM Hepes, pH 7.0[40][46]. Control experiments using empty membrane and/or detergents were performed to avoid activity in any of the above solutions. Data were acquired using a Bilayer Clamp amplifier (Warner Instruments) at 100 μs/point, filtered at 200 Hz and analyzed offline using Clampfit 10.4 program set (Axon Instruments, Union City, CA, USA). Single channel analysis of VDAC1 was performed in presence or not of 0.2 μM of SOD1 WT or G93A, 15 μM NHK1 or ScNHK1 peptide.

recombinant human VDAC1 [4] = assay: Microscale Thermophoresis (MST) analysis of VDAC1-SOD1 interaction; assay type: binding; conditions: 100 nM labeled VDAC1, SOD1 1.22 nM to 20 μM
Procedure: as §1
Microscale Thermophoresis (MST) analysis was performed using the NanoTemper Monolith NT.115 apparatus (NanoTemper Technologies, Munich, Germany) as described. VDAC1 was fluorescently-labeled using the NanoTemper protein-labeling kit Green/Blue. […]

[5] = tested on: VDAC1-SOD1 G93A interaction; assay: In vitro VDAC1-SOD1 G93A binding assay after pre-incubation with HK1 or peptide (western blot, densitometry); design: species or system human; conditions: 200 μM HK1 pre-incubated 1 h, 6.25 μM SOD1 G93A; with respect to control; n = 3
Source text: It is well known that HKs bind to VDAC1 in physiological conditions. We hypothesized that the available area for interaction with soluble proteins is a limited, exposed portion of the transmembrane pore VDAC1. […] For this reason, we repeated the VDAC1-SOD1 G93A binding assay, adding increasing concentrations of HK1. […] The reduction corresponds to the increase of HK1 in VDAC1-bound fraction, and it is proportional to the HK1 concentrations added in the assay (Fig. 3A).
In order to evaluate the NHK1 ability to interfere with VDAC1-SOD1 G93A interaction, a binding assay was performed. Increasing concentrations of NHK1 were added to immobilized-VDAC1, before SOD1 G93A addition. […] In fact, a 20-fold smaller concentration of peptide was used to obtain a result similar to that obtained by using the whole HK1 in the previous experiment (see Fig. 3A).
Recombinant VDAC1 was immobilized onto Ni-NTA Magnetic Agarose Beads (Qiagen) by exploiting its 6xHis-tag, according with manufacture’s protocol. For each experiment, a large excess of VDAC1 (30 μM) were incubated with 50 μL of beads suspension in Interaction Buffer (IB) (300 mM NaCl, 50 mM NaH2PO4, 20 mM imidazole, pH 8.0) to saturate all sites. Beads were collected using the magnet-based system DynaMag-2 (Life Technologies) and washed twice in Wash Buffer (300 mM NaCl, 50 mM NaH2PO4, 20 mM imidazole, 0.05% Tween-20, pH 6.3) to remove any excess of VDAC1. Beads-immobilized VDAC1 were incubated with 6.25 μM SOD1 WT or G93A, for 1 h at RT, under constant shaking, in 100 μL of IB. The assay was also performed by pre-incubating immobilized-VDAC1 for an extra 1 h with increasing concentration of purified human HK1 (0, 100, 200 μM) or NHK1 peptide (0, 5, 10, 25 μM), before SOD1 G93A addition. Beads were recovered using Dyna-Mag2 system and VDAC1-complexes were eluted from beads using 50 μL of Elution Buffer (300 mM NaCl, 50 mM NaH2PO4, 300 mM imidazole, pH 3.5). Any protein in VDAC1-bound and -unbound fractions was evaluated by western blot. Three independent experiments were performed for each condition tested.

NSC34-SOD1G93A cells = assay: Mitochondrial membrane potential (ΔΨm) by flow cytometry; assay type: cell-based, mouse; conditions: NSC34-SOD1G93A expressing HK1; RH123; n = 3
Procedure: To evaluate the NHK1 influence on mitochondrial functionality, mitochondrial membrane potential variation (ΔΨm) was assayed in the presence of NHK1 peptide or HK1. ΔΨm is related to the ATP production by oxidative phosphorylation; therefore, it is considered an indication of good mitochondrial and cellular health. Using mitochondria-targeted fluorescent probes, we estimated in flow cytometry the rate of mitochondrial depolarization. NSC34-SOD1G93A cells shown a high level of depolarized mitochondria compared to NSC34-SOD1WT. […] Similarly to NHK1 peptide, the expression of the whole HK1 reduced the depolarized mitochondria of about 15% (Fig. 7C).
ΔΨm was measured using tetramethyl-rhodamine methyl ester (TMRM) or Rhodamine 123 (RH123) (Molecular Probes) according to the excitation/emission wavelength of the transfection reporter or of the transfected fluorescent protein used. Both probes accumulates in active mitochondria due to their positive charge, whereby the reduction of ΔΨm leads to the release of fluorescent probes. Transfected NSC34-SOD1WT and NSC34-SOD1G93A cells were washed with PBS and incubated for 30 min at 37 °C with Krebs Ringer Buffered Saline supplemented with either 200 nM TMRM or 0.1 μg/mL RH123 and 20 μM Verapamil (as a multi drug-resistant pump inhibitor) (Sigma). Cells were then harvested and immediately analyzed by flow cytometry. Cells were excited by an air-cooled argon 488 nm laser, reading the GFP fluorescence of HK1-GFP or RH123 fluorescence in FL1 log mode; TMRM and mtDsRED used as transfection reporter of NHK1 peptide were read on FL3 log mode. Only viable cells detected by reading the scattering indicated as FSC and SSC, were considered for our analysis. The threshold physiological value of ΔΨm was estimated by using cells exposed to 1 μM of the uncoupling agent FCCP as a negative control. Data reported are representative for three sets of independent experiments, each performed at least in triplicate and based on 20.000 events for each group. Data were statistical analyzed by chi-square test. A p < 0,001 was taken as significant.

| Molecule | distribution between VDAC1-bound and -unbound fraction (recombinant human VDAC1 [1]) | distribution between mitochondrial pellet and supernatant [2] | effect on single channel VDAC1 conductance [3] | effect on voltage-dependence of VDAC1, triangular voltage ramps [3] | change of fluorescence of labeled VDAC1 with increasing SOD1 concentration (recombinant human VDAC1 [4]) | decrease of SOD1 G93A bound to immobilized VDAC1 [5] | reduction of depolarized mitochondria (NSC34-SOD1G93A cells) |
| --- | --- | --- | --- | --- | --- | --- | --- |
| SOD1 G93A: Strep-tagged recombinant human ALS-linked SOD1 G93A mutant expressed in E. coli | distributed between VDAC1-bound and -unbound fraction | co-precipitated in the mitochondrial pellet | promoted VDAC1 channel instability | perturbation of voltage-dependence | produced fluorescence decrease |  |  |
| SOD1 WT: Strep-tagged recombinant human SOD1 wild type expressed in E. coli | almost exclusively in the unbound fraction | found exclusively in the supernatant | did not modify the VDAC1 closed state | no modification in the usual VDAC1 pattern | no fluorescence change |  |  |
| B1 |  |  |  |  |  | about 40% | about 15% |
